In PMC7093416, “Selective USP7 inhibition elicits cancer cell killing through a p53-dependent mechanism” (Scientific Reports, 2020):

Tested on: panel of 484 cancer cell lines
Assay: PRISM cancer cell line profiling, 5 days
Format: cell-based
Design: AUC: unit not given beside the values
Protocol: Cancer cell line profiling was performed using the Broad’s PRISM platform. Cell treatment and data analysis were performed as described in Yu et al[42]. Raw Luminex signal was converted to AUC values for each cell line as described. The resulting AUC profile for each compound was modeled against DepMap using the limma package in R[71]. Because hotspot mutation analysis was performed against DepMap, TP53 annotations in Fig. 6c,d are directly from DepMap.

`CN1CCN(CCC(=O)Nc2ccc3c(=O)n(CC4(O)CCN(C(=O)[C@H](CCCNC(=O)c5ccc6c(Cl)c7c(nc6c5)CCCC7)Cc5ccccc5)CC4)cnc3c2)CC1` [XL177B] gave an AUC (8MGBA_CENTRAL_NERVOUS_SYSTEM) of 1.054, an AUC (22RV1_PROSTATE) of 1.093 and an AUC (42MGBA_CENTRAL_NERVOUS_SYSTEM) of 1.146. The AUC (253JBV_URINARY_TRACT) was 1.057, the AUC (253J_URINARY_TRACT) was 1.086 and the AUC (639V_URINARY_TRACT) was 1.062. It also gave an AUC (647V_URINARY_TRACT) of 1.143, an AUC (769P_KIDNEY) of 1.004 and an AUC (786O_KIDNEY) of 1.051. The AUC (5637_URINARY_TRACT) was 0.9181, the AUC (8305C_THYROID) was 1.192 and the AUC (8505C_THYROID) was 0.9816. It also gave an AUC (2313287_STOMACH) of 1.329, an AUC (A101D_SKIN) of 1.213 and an AUC (A172_CENTRAL_NERVOUS_SYSTEM) of 1.079. It also gave an AUC (A204_SOFT_TISSUE) of 1.022, an AUC (A375_SKIN) of 1.179 and an AUC (A549_LUNG) of 1.079. For the same compound, the AUC (A673_BONE) was 1.28, the AUC (A704_KIDNEY) was 1.217 and the AUC (A2058_SKIN) was 1.197. It also gave an AUC (A2780_OVARY) of 1.076, an AUC (ABC1_LUNG) of 1.075 and an AUC (ACCMESO1_PLEURA) of 0.9927. For the same compound, the AUC (ACHN_KIDNEY) was 1.273, the AUC (AGS_STOMACH) was 1.102 and the AUC (AN3CA_ENDOMETRIUM) was 1.099. The AUC (ASPC1_PANCREAS) was 1.162, the AUC (BC3C_URINARY_TRACT) was 1.114 and the AUC (BCPAP_THYROID) was 1.195. For the same compound, the AUC (BECKER_CENTRAL_NERVOUS_SYSTEM) was 1.058, the AUC (BEN_LUNG) was 1.091 and the AUC (BFTC905_URINARY_TRACT) was 1.11. It also gave an AUC (BFTC909_KIDNEY) of 1.1037, an AUC (BHT101_THYROID) of 1.056 and an AUC (BICR6_UPPER_AERODIGESTIVE_TRACT) of 0.9836. It also gave an AUC (BICR16_UPPER_AERODIGESTIVE_TRACT) of 1.161, an AUC (BICR31_UPPER_AERODIGESTIVE_TRACT) of 0.9322 and an AUC (BICR56_UPPER_AERODIGESTIVE_TRACT) of 0.9864. For the same compound, the AUC (BT474_BREAST) was 1.187, the AUC (BT549_BREAST) was 0.9575 and the AUC (BXPC3_PANCREAS) was 1.32. For the same compound, the AUC (CADOES1_BONE) was 1.116, the AUC (CAKI1_KIDNEY) was 1.162 and the AUC (CAL12T_LUNG) was 1. The AUC (CAL27_UPPER_AERODIGESTIVE_TRACT) was 1.104, the AUC (CAL29_URINARY_TRACT) was 1.1383 and the AUC (CAL51_BREAST) was 1.013. The AUC (CAL54_KIDNEY) was 1.167, the AUC (CAL62_THYROID) was 1.094 and the AUC (CAL78_BONE) was 1.0528. The AUC (CAL120_BREAST) was 0.9632, the AUC (CALU1_LUNG) was 0.8074 and the AUC (CALU6_LUNG) was 1.057. The AUC (CAMA1_BREAST) was 1.095, the AUC (CAOV3_OVARY) was 1.1 and the AUC (CAPAN2_PANCREAS) was 1.138. For the same compound, the AUC (CCFSTTG1_CENTRAL_NERVOUS_SYSTEM) was 0.9645, the AUC (CFPAC1_PANCREAS) was 1.136 and the AUC (CHL1_SKIN) was 1.081. It also gave an AUC (CJM_SKIN) of 1.284, an AUC (CL34_LARGE_INTESTINE) of 1.203 and an AUC (COLO668_LUNG) of 1.113. The AUC (COLO679_SKIN) was 1.002, the AUC (COLO680N_OESOPHAGUS) was 1.0645 and the AUC (COLO741_SKIN) was 1.159. The AUC (COLO783_SKIN) was 1.1, the AUC (COLO792_SKIN) was 1.078 and the AUC (COLO800_SKIN) was 1.008. For the same compound, the AUC (CORL23_LUNG) was 1.07, the AUC (CORL105_LUNG) was 1.1478 and the AUC (COV362_OVARY) was 1.091. It also gave an AUC (COV434_OVARY) of 0.9992, an AUC (DANG_PANCREAS) of 1.066 and an AUC (DAOY_CENTRAL_NERVOUS_SYSTEM) of 0.9946. For the same compound, the AUC (DBTRG05MG_CENTRAL_NERVOUS_SYSTEM) was 1.141, the AUC (DETROIT562_UPPER_AERODIGESTIVE_TRACT) was 1.072 and the AUC (DKMG_CENTRAL_NERVOUS_SYSTEM) was 1.0187. It also gave an AUC (DMS273_LUNG) of 1.134, an AUC (DU145_PROSTATE) of 1.137 and an AUC (DV90_LUNG) of 0.9062. The “∆ (AUC, TP53 mutation vs WT; decreased sensitivity)” value (DepMap TP53 mutation annotation) was “not significantly associated”, the AUC (EBC1_LUNG) was 1.133 and the AUC (ECGI10_OESOPHAGUS) was 1.109. The AUC (EFM192A_BREAST) was 0.9815, the AUC (EFO21_OVARY) was 1.192 and the AUC (EFO27_OVARY) was 1.165. It also gave an AUC (EN_ENDOMETRIUM) of 1.137, an AUC (ES2_OVARY) of 1.077 and an AUC (ESS1_ENDOMETRIUM) of 1.338. It also gave an AUC (EWS502_BONE) of 1.036, an AUC (FADU_UPPER_AERODIGESTIVE_TRACT) of 1.234 and an AUC (FTC133_THYROID) of 0.9765. The AUC (FTC238_THYROID) was 0.9864, the AUC (G292CLONEA141B1_BONE) was 1.035 and the AUC (G361_SKIN) was 1.116. The AUC (G401_SOFT_TISSUE) was 0.7376, the AUC (G402_SOFT_TISSUE) was 0.8902 and the AUC (GAMG_CENTRAL_NERVOUS_SYSTEM) was 1.162. It also gave an AUC (GB1_CENTRAL_NERVOUS_SYSTEM) of 1.065, an AUC (GCIY_STOMACH) of 0.9556 and an AUC (GCT_SOFT_TISSUE) of 1.093. It also gave an AUC (GI1_CENTRAL_NERVOUS_SYSTEM) of 0.984, an AUC (GMS10_CENTRAL_NERVOUS_SYSTEM) of 0.9403 and an AUC (GOS3_CENTRAL_NERVOUS_SYSTEM) of 0.9659. The AUC (GP2D_LARGE_INTESTINE) was 1.185, the AUC (H4_CENTRAL_NERVOUS_SYSTEM) was 1.05 and the AUC (HARA_LUNG) was 1.202. It also gave an AUC (HCC15_LUNG) of 1.143, an AUC (HCC38_BREAST) of 1.103 and an AUC (HCC44_LUNG) of 1.112. For the same compound, the AUC (HCC56_LARGE_INTESTINE) was 1.103, the AUC (HCC78_LUNG) was 1.106 and the AUC (HCC95_LUNG) was 1.096. For the same compound, the AUC (HCC366_LUNG) was 1.065, the AUC (HCC827_LUNG) was 0.9535 and the AUC (HCC1143_BREAST) was 1.163. It also gave an AUC (HCC1195_LUNG) of 0.8866, an AUC (HCC1359_LUNG) of 1.197 and an AUC (HCC1419_BREAST) of 1.107. For the same compound, the AUC (HCC1428_BREAST) was 0.9597.
